Here are results for four compounds from patent publication US10857163B1, “Compositions that preferentially potentiate subtypes of GABAA receptors and methods of use thereof” (priority 2019, dated 2020).

One may read the EC50 as the concentration needed to bring the measured effect to its halfway point. By IC50 is commonly meant the point on the concentration scale where inhibition reaches its midpoint.

Some results are limits rather than exact numbers.

For test [1], the target named is T1, α4β3δ GABAA receptor (Homo sapiens, UniProt O14764+P28472+P48169). The test is described as follows: FLIPR modulation of GABAA receptor subtype in expressing cells. Format: cell-based. Also on record: expressed in transfected cells. As for the experimental part:
(§1) Cells expressing the indicated GABAA receptor subtype were exposed to gamma-aminobutyric acid in the presence of varying concentrations of either CV-10155 or SPNC-019, calcium flux was measured using a fluorometric imaging plate reader (FLIPR), and EC50 values for compounds were determined.

In another test the target is T2, α5β1γ2 GABAA receptor (Homo sapiens, UniProt P18505+P18507+P31644).
T2 construct: expressed in transfected cells
Described as above. Format: cell-based. The settings on record: cells exposed to GABA plus compound, — = value not measurable. As for the experimental part: as §1

Another test concerns the target T3, α1β1γ2 GABAA receptor (Homo sapiens, UniProt P14867+P18505+P18507).
T3 construct: expressed in transfected cells
Described as above. Format: cell-based. The settings on record: cells exposed to GABA plus compound, — = value not measurable. As for the experimental part: as §1

Another test concerns the target T4, α3β1γ2 GABAA receptor (Homo sapiens, UniProt P18505+P18507+P34903).
T4 construct: expressed in transfected cells
The test is described as above. Format: cell-based. As to conditions: cells exposed to GABA plus compound, — = value not measurable. As for the experimental part:
as §1

For another test, the target named is T5, α5β3γ2 GABAA receptor (Homo sapiens, UniProt P18507+P28472+P31644).
T5 construct: expressed in transfected cells
The test is described as above. Format: cell-based. As to conditions: cells exposed to GABA plus compound, — = value not measurable. As for the experimental part:
as §1

Another test has as its target T6, α2β1γ2 GABAA receptor (Homo sapiens, UniProt P18505+P18507+P47869).
T6 construct: expressed in transfected cells
Described as above. Format: cell-based. As to conditions: cells exposed to GABA plus compound, — = value not measurable. As for the experimental part:
as §1

In a further test the target is T7, α6β3γ2 GABAA receptor (Homo sapiens, UniProt P18507+P28472+Q16445).
T7 construct: expressed in transfected cells
The test is described as above. Format: cell-based. As to conditions: cells exposed to GABA plus compound, — = value not measurable. As for the experimental part: as §1

A further test has as its target T8, α4β1γ2 GABAA receptor (Homo sapiens, UniProt P18505+P18507+P48169).
T8 construct: expressed in transfected cells
Described as above. The settings on record: cells exposed to GABA plus compound, — = value not measurable. Format: cell-based. As for the experimental part:
as §1

The next test has as its target T9, α3β3γ2 GABAA receptor (Homo sapiens, UniProt P18507+P28472+P34903).
T9 construct: expressed in transfected cells
The test is described as above. As to conditions: cells exposed to GABA plus compound, — = value not measurable. Format: cell-based. As for the experimental part:
as §1

A further test addresses T10, α5β2γ2 GABAA receptor (Homo sapiens, UniProt P18507+P31644+P47870).
T10 construct: expressed in transfected cells
The description is as above. Format: cell-based. The settings on record: cells exposed to GABA plus compound, — = value not measurable. As for the experimental part:
as §1

Another test addresses T11, α4β3γ2 GABAA receptor (Homo sapiens, UniProt P18507+P28472+P48169).
T11 construct: expressed in transfected cells
The description is as above. Format: cell-based. As to conditions: cells exposed to GABA plus compound, — = value not measurable. As for the experimental part:
as §1

Another test deals with T12, α6β1γ2 GABAA receptor (Homo sapiens, UniProt P18505+P18507+Q16445).
T12 construct: expressed in transfected cells
The test is described as above. Format: cell-based. The settings on record: cells exposed to GABA plus compound, — = value not measurable. As for the experimental part:
as §1

In a further test the target is T13, α3β2γ2 GABAA receptor (Homo sapiens, UniProt P18507+P34903+P47870).
T13 construct: expressed in transfected cells
Described as above. Format: cell-based. The settings on record: cells exposed to GABA plus compound, — = value not measurable. As for the experimental part:
as §1

In a further test the target is T14, α2β3γ2 GABAA receptor (Homo sapiens, UniProt P18507+P28472+P47869).
T14 construct: expressed in transfected cells
The description is as above. As to conditions: cells exposed to GABA plus compound, — = value not measurable. Format: cell-based. As for the experimental part: as §1

Another test addresses T15, α1β3γ2 GABAA receptor (Homo sapiens, UniProt P14867+P18507+P28472).
T15 construct: expressed in transfected cells
Described as above. Format: cell-based. As to conditions: cells exposed to GABA plus compound, — = value not measurable. As for the experimental part: as §1

For test [2], the target named is T16, α1β2γ2 GABAA receptor (Homo sapiens, UniProt P14867+P18507+P47870).
T16 construct: expressed in transfected cells
Described as above. Format: cell-based. The settings on record: cells exposed to GABA plus compound, — = value not measurable. As for the experimental part:
as §1

A further test concerns the target T17, α6β2γ2 GABAA receptor (Homo sapiens, UniProt P18507+P47870+Q16445).
T17 construct: expressed in transfected cells
Described as above. Format: cell-based. As to conditions: cells exposed to GABA plus compound, — = value not measurable. As for the experimental part:
as §1

The next test has as its target T18, α2β2γ2 GABAA receptor (Homo sapiens, UniProt P18507+P47869+P47870).
T18 construct: expressed in transfected cells
Described as above. The settings on record: cells exposed to GABA plus compound, — = value not measurable. Format: cell-based. As for the experimental part:
as §1

The next test concerns GABAA receptor subtypes. The test is described as follows: FLIPR panel of 18 GABAA receptor subtypes, overall statement. Format: cell-based. The settings on record: 18 subtypes. As for the experimental part:
as §1
The only structural difference between CV-10155 and SPNC-019 is the stereochemical configuration of the hydroxyl and methyl groups attached to the carbon atom at position 3 of the steroid core. […] The results further indicate that the isomeric purity of neurosteroid compositions greatly impacts the utility of such compositions as therapeutic agents.

Test [3] concerns the target picrotoxin binding site of GABAA receptors. The settings on record: membranes isolated from the cortices of rat brains; Table 1 of WO 2016/061527; read-out: IC50 in the TBPS displacement assay; cited from earlier work.
Test [4] has as its target T16, α1β2γ2 GABAA receptor. As to conditions: 10 μM neurosteroid, GABA 2 μM (EC20), LTK cells; Table 2 of WO 2016/061527; cited from earlier work.
The target in test [5] is T1, α4β3δ GABAA receptor. Details: expressed in transfected cells; host or cells: CHO cells (transient). As to conditions: 10 μM neurosteroid, GABA 2 μM (EC20), CHO cells; Table 2 of WO 2016/061527; cited from earlier work.

T1 sequence (P48169 36-554): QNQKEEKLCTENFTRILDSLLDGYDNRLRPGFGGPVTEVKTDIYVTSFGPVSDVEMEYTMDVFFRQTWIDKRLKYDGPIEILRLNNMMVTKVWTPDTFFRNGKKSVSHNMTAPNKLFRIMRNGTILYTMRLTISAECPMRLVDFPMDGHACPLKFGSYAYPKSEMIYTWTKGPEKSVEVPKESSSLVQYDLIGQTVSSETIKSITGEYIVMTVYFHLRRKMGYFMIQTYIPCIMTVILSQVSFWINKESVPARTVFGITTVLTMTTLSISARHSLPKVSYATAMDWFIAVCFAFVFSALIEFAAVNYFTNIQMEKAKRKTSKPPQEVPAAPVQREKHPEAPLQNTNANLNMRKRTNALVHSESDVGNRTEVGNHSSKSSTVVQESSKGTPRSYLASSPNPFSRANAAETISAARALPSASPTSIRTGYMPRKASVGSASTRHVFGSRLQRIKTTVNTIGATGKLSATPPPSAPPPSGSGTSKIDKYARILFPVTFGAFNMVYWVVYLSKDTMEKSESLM
T1 sequence (P28472 26-473): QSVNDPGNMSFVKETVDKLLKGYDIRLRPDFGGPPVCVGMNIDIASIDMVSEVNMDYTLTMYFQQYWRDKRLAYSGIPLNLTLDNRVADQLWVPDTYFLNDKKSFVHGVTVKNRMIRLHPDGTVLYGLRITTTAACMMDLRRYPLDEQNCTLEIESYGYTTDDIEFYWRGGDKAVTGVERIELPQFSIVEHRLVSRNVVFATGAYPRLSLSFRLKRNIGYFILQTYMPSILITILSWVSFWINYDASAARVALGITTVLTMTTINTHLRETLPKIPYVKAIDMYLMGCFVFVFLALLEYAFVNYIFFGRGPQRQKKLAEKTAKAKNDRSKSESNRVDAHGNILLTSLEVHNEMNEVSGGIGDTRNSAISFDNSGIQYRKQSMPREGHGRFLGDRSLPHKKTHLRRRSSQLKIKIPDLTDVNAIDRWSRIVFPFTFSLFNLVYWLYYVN
T1 sequence (O14764 25-452): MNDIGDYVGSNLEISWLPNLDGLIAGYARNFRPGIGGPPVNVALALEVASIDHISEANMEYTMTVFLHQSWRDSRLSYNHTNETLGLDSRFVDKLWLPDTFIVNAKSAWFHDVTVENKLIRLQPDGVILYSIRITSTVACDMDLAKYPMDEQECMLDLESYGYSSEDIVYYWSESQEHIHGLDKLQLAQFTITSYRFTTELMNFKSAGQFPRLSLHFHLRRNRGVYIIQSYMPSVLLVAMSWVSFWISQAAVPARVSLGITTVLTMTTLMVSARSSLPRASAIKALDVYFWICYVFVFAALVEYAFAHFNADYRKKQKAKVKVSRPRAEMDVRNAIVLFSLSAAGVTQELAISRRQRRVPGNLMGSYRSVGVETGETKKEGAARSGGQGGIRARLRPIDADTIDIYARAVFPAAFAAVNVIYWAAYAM
T16 sequence (P14867 28-456): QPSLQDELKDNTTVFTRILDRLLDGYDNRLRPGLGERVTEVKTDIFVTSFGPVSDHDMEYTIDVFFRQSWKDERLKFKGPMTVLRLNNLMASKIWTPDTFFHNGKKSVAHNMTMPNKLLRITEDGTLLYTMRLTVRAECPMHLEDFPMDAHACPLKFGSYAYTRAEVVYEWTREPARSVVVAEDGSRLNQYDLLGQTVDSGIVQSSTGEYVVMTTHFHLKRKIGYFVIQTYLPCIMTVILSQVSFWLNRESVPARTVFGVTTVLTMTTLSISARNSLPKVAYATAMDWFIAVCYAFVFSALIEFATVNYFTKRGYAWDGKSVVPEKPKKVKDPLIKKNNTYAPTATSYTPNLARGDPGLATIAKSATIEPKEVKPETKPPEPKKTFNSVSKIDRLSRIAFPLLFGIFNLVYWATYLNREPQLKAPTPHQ
T16 sequence (P47870 25-512 limits assumed): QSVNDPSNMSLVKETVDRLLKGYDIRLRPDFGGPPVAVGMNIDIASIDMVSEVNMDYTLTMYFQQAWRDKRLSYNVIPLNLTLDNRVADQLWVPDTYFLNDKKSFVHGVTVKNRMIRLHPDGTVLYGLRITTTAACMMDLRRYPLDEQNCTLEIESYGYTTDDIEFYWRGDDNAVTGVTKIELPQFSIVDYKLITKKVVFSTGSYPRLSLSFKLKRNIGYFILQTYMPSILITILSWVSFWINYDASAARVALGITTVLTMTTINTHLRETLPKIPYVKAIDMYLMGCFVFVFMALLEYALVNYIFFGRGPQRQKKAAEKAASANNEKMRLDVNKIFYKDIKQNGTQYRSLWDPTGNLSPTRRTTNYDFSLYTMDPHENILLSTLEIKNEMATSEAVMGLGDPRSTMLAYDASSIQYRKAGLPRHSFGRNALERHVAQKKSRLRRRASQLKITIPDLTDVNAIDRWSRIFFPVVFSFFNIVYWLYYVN
T16 sequence (P18507 40-475): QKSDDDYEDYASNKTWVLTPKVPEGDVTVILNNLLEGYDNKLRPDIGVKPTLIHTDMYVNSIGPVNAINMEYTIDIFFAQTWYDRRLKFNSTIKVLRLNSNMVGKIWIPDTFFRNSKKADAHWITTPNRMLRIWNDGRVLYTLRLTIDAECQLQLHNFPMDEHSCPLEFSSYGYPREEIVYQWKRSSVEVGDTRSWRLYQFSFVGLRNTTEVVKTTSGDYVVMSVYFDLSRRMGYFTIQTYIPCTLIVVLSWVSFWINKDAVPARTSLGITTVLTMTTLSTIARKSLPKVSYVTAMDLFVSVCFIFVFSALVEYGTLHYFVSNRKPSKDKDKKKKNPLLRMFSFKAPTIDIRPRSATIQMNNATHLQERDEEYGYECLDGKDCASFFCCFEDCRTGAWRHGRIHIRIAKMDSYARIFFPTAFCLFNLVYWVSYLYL
T7 sequence (Q16445 20-453): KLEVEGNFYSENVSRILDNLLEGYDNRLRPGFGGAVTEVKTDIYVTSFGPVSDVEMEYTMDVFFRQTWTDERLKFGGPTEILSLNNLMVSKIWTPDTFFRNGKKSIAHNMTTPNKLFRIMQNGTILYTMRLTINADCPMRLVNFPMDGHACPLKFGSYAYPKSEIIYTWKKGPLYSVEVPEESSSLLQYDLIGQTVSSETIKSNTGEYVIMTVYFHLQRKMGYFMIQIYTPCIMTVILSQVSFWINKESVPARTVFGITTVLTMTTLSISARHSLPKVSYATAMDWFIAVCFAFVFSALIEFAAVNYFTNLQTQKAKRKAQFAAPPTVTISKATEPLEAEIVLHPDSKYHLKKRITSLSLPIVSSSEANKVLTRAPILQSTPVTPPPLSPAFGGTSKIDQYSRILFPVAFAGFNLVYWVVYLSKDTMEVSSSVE
T7 sequence (P28472 26-473): as the sequence (P28472 26-473) above
T7 sequence (P18507 40-475): as the sequence (P18507 40-475) above
T10 sequence (P31644 32-462): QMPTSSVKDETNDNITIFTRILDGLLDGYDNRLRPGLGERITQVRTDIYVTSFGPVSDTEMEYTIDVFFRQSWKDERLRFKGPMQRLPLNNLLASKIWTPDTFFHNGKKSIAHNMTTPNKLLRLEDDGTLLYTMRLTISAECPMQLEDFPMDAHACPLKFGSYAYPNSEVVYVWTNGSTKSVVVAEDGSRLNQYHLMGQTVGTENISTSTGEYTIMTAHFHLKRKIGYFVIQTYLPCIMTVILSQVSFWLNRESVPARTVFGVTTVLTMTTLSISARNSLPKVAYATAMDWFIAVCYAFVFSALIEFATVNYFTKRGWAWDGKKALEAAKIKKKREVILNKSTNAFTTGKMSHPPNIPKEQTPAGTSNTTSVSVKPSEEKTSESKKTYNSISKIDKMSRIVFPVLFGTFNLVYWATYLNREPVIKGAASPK
T10 sequence (P47870 25-512 limits assumed): as the sequence (P47870 25-512 limits assumed) above
T10 sequence (P18507 40-475): as the sequence (P18507 40-475) above
T5 sequence (P31644 32-462): as the sequence (P31644 32-462) above
T5 sequence (P28472 26-473): as the sequence (P28472 26-473) above
T5 sequence (P18507 40-475): as the sequence (P18507 40-475) above
T15 sequence (P14867 28-456): as the sequence (P14867 28-456) above
T15 sequence (P28472 26-473): as the sequence (P28472 26-473) above
T15 sequence (P18507 40-475): as the sequence (P18507 40-475) above
T3 sequence (P14867 28-456): as the sequence (P14867 28-456) above
T3 sequence (P18505 26-474): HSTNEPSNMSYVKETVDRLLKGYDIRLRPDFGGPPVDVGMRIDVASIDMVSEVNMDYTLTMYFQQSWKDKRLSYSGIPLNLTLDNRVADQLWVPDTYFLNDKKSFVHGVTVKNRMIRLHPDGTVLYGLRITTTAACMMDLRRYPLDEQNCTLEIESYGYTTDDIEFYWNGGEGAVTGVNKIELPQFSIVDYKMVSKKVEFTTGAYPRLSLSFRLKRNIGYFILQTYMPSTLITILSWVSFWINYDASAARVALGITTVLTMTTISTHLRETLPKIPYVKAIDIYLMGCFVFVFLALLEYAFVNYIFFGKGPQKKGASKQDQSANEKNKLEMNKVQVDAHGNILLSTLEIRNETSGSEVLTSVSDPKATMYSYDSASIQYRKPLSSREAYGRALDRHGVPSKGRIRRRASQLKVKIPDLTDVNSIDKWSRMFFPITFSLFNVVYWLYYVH
T3 sequence (P18507 40-475): as the sequence (P18507 40-475) above
T11 sequence (P48169 36-554): as the sequence (P48169 36-554) above
T11 sequence (P28472 26-473): as the sequence (P28472 26-473) above
T11 sequence (P18507 40-475): as the sequence (P18507 40-475) above
T8 sequence (P48169 36-554): as the sequence (P48169 36-554) above
T8 sequence (P18505 26-474): as the sequence (P18505 26-474) above
T8 sequence (P18507 40-475): as the sequence (P18507 40-475) above

Turning to `C[C@@]1(O)CC[C@@]2(C)[C@@H](CC[C@@H]3[C@@H]2CC[C@]2(C)[C@@H](C(=O)Cn4cc(C#N)cn4)CC[C@@H]32)C1` [CV-10155], the EC50 on α4β3δ GABAA receptor [1] (FLIPR, cells exposed to GABA plus compound, — = value not measurable) amounted to 106 nM; at α5β1γ2 GABAA receptor it was 762 nM; at α1β1γ2 GABAA receptor, 521 nM; on α3β1γ2 GABAA receptor, 946 nM; at α5β3γ2 GABAA receptor, 1300 nM; at α2β1γ2 GABAA receptor it was 253 nM. In addition, the EC50 is 245 nM on α6β3γ2 GABAA receptor; 204 nM on α4β1γ2 GABAA receptor; 273 nM at α3β3γ2 GABAA receptor; 359 nM at α5β2γ2 GABAA receptor; 1330 nM on α4β3γ2 GABAA receptor; 359 nM on α6β1γ2 GABAA receptor. Also, the EC50 at α3β2γ2 GABAA receptor was 1820 nM; on α2β3γ2 GABAA receptor, 296 nM; on α1β3γ2 GABAA receptor it was 520 nM; at α1β2γ2 GABAA receptor [2], 839 nM; at α6β2γ2 GABAA receptor, 1100 nM; on α2β2γ2 GABAA receptor, 213 nM. For the same compound, at α4β3δ GABAA receptor [1] (data of Example 1), the “activity on α4β3δ compared with α1β2γ2 GABAA receptors, in words” value is given as “substantially more active on α4β3δ GABAA receptors than on α1β2γ2 GABAA receptors”. On α4β3δ GABAA receptor [1] (isomerically pure composition, α4β3δ versus α1β2γ2), the “EC50 for α4β3δ receptors lower than for α1β2γ2 receptors” value was “at least 5 fold”. In addition, in the test on GABAA receptor subtypes, the “modulating activity across the GABAA receptor subtypes tested” value is listed as “some level of positive allosteric modulating activity in all of the GABAA receptor subtypes tested”.
Regarding `C[C@@]1(O)CC[C@@]2(C)[C@H](CC[C@@H]3[C@@H]2CC[C@]2(C)[C@@H](C(=O)Cn4cc(C#N)cn4)CC[C@@H]32)C1` [Compound 10], the IC50 in test [3] was less than 10 nM.
Take `C[C@@]1(O)CC[C@@]2(C)[C@@H](CC[C@@H]3[C@@H]2CC[C@]2(C)[C@@H](C(=O)Cn4ccc(C#N)n4)CC[C@@H]32)C1` [Compound 121]: the “efficacy: relative potentiation of GABA-mediated conductance, α1β2γ2” value on α1β2γ2 GABAA receptor [4] is on record as greater than 500%. Further, the “efficacy: relative potentiation of GABA-mediated conductance, α4β3δ” value at α4β3δ GABAA receptor [5] was greater than 500%. In [3], the 50% inhibitory concentration (IC50) was 10 to 50 nM.
With `C[C@]1(O)CC[C@@]2(C)[C@@H](CC[C@@H]3[C@@H]2CC[C@]2(C)[C@@H](C(=O)Cn4cc(C#N)cn4)CC[C@@H]32)C1` [SPNC-019, reference compound], the EC50 was found to be 1810 nM on α5β3γ2 GABAA receptor, 1770 nM at α6β3γ2 GABAA receptor and 1200 nM on α5β2γ2 GABAA receptor. For the same compound, the “modulating activity across the GABAA receptor subtypes tested” value with GABAA receptor subtypes was “no modulating activity in 15 of the 18 GABAA receptor subtypes tested”.
